Measurements published in patent US8163776B2, “Method of immunomodulation using thione-forming disulfides” (Grassetti family Trust, priority 2001, dated 2012).
Several values for one entry are separate records, joined by “and”; a condition that tells them apart may be missing. Equal values may be shown once.

Assays:
[1] = Weight gain of mice on CPDS diet; type: in vivo, BALB/c mice
Method: To prepare a CPDS diet, a total of 3 kilos of Standard Purina chow was reduced to powder using a grinder. About 12 g of CPDS was added to the powder and thoroughly mixed, re-hydrated and reconstituted into pellets. Pellets were allowed to dry overnight.
Male adult BALB/c mice were weighed and randomly divided to form the experimental groups. Mice were allowed to acclimatized 3 days prior to the beginning of the experiments. Mice from the control normal diet groups were fed ad libitum with standard Purina mouse chow. Mice from the CPDS treated groups were fed ad libitum with the CPDS preparation. The amount of food given was weighted and recorded to allow the evaluation of the CPDS dosage.
The weight gained by each mice was evaluated weekly and prior to sacrifice. Mice were sacrificed by overexposure to CO2. The spleen from each mouse was collected under sterile conditions, transferred into HBSS buffered solution and kept on ice until used for other studies disclosed. Experiments were performed on the same day.

[2] = tested on: antibody production to keyhole limpet hemocyanin (KLH); assay: Humoral response to KLH immunization, immunodot blot; type: in vivo, BALB/c mice
Method: To perform KLH immunization, KLH was prepared in sterile D-PBS at a concentration of 150 μg in 0.1 ml. Animals were injected 0.1 ml of the preparation subcutaneously. After 15 days and just before sacrifice, a blood sample was collected from each mouse by cardiac puncture. Serum was obtained by centrifugation, aliquoted and frozen (−20° C.) until used.
Immunodot blot assay was used to assess antibody production. Hybond-ECL membrane was used in the immunodot blot assay. A volume of 2 μl of different concentrations (0, 10, 50, 250 μg/ml) of KLH antigen was placed on the dry membrane. Antigen dots were allowed to dry overnight at 4° C. Membrane was blocked with a dry milk solution for 1 hour. Two μl of the antiserum diluted ½, ¼, 1/16, 1/32, 1/64, 1/128 and undiluted was put on the blot and incubated for 1 hour. The membrane was washed with TES buffer solution 3 times. Goat anti-mouse IgG antibodies coupled with horseradish peroxidase were put on the blot and incubated for 1 hour. The membrane was washed with TBS buffer solution 3 times. […] Revelation time was 1 minute. The membrane was exposed for 18 hours to film.
The lower serum dilution where an antibody response is apparent was chosen to calculate antibody titer. The antibody titer corresponded to the inverse of the dilution. The titer was converted to log2, e.g., 8=3 (log2). Results were compared and Student's T test was performed between the control group and the treated group. The p value was calculated for statistical significance.
For this experiment, animals were treated with CPDS for 30 days, immunized subcutaneously with keyhole limpet hemocyanin (KLH) and treated an additional 15 days, at which point blood was collected for antibody detection. […] The antibody titer to KLH was 1/4.29 (2.13 log2) for control group and 1/2.00 (1.00 log2) for CPDS-treated group. The decrease in the antibody production may be partially related to the significant decrease in the B cell population observed in the immunophenotyping results. However, no loss of reactivity was observed from the lymphoproliferative assay when B cells were stimulated with LPS.

[3] = tested on: feline immunodeficiency virus (FIV); assay: CPDS in an FIV-infected cat (Example 8); type: in vivo
Method: A cat infected with feline immunodeficiency virus (FIV) was given 140 mg CPDS each morning. The CPDS was mixed with the cat's chow (food). The 140 mg CDPS dosage regimen was continued for 2 weeks. At this time, the cat's overall conditions (thin facial hair, dull eyes, excorations of the skin, appetite, general behavior) improved. After the 2 week timepoint, the dosage regimen was increased to 140 mg CPDS every morning and night (280 mg CPDS daily), mixed in the cat chow. […] The cat's eyes were bright, facial hair was thick, appearance of hair was shiny, and the cat regained its appetite and gained 300 g in weight.

[4] = tested on: feline immunodeficiency virus (FIV); assay: CPDS in an FIV-positive cat with FIDS symptoms (Example 10); type: in vivo
Excerpt: A very ill, young, spayed male cat ws presented with symptoms of feline immunodeficiency syndrome (FIDS). He had fever, diarrhea, and his glands were swollen. His coat was dull and the cat was listless.
His blood tested positive for feline immunodeficiency syndrome (FIV), as determined by ELISA testing with feline immunodeficiency virus antibody from Indexx Laboratories (Westbrook, Me.). The cat's weight upon presentation was 9.5 lbs.
Treatment of the cat with CPDS commenced the same day with a daily dose of 280 mg CPDS in the cat's diet. The regimen was continued for 30 days. […] The hair on the cat's muzzle and back was still thin. CPDS treatment was continued at 140 mg/day for another 60 days. […] His coat was rich and shiny, his eyes became bright, and his behavior was normal for a spayed male cat. The cat's weight after 60 days of treatment was 10.2 lbs, a gain of about 300 grams.

[5] = literature statement; cited from earlier work
[6] = Group 2 (30 days CPDS diet), group Mean ± S.D.
[7] = Group 2 (30 days CPDS diet), individual mice
[8] = Group 4 (45 days CPDS diet), group Mean ± S.D.
[9] = Group 4 (45 days CPDS diet), individual mice
[10] = Group 6 (6 days CPDS diet), group Mean ± S.D.
[11] = Group 6 (6 days CPDS diet), individual mice
[12] = FIV-positive cat, end of thirty days at 280 mg CPDS daily

Animal weight, Day 0 [1, 6]: 14.87 ± 1.18 g | Animal weight, Day 6 [1, 6]: 17.89 ± 1.2 g | Animal weight, Day 14 [1, 6]: 19.36 ± 0.9 g | Animal weight, Day 21 [1, 6]: 20.50 ± 0.9 g | Animal weight, Day 28 [1, 6]: 22.04 ± 1.0 g | Animal weight, Day 0 [1, 8]: 14.57 ± 0.8 g | Animal weight, Day 6 [1, 8]: 17.74 ± 1.0 g | Animal weight, Day 14 [1, 8]: 18.92 ± 1.1 g | Animal weight, Day 21 [1, 8]: 19.86 ± 1.1 g | Animal weight, Day 28 [1, 8]: 21.60 ± 1.2 g | Animal weight, Day 35 [1, 8]: 22.19 ± 1.1 g | Animal weight, Day 45 [1, 8]: 22.78 ± 1.1 g | Animal weight, Day 0 [1, 10]: 15.15 ± 1.1 g | Animal weight, Day 6 [1, 10]: 18.40 ± 0.7 g | Animal weight, Day 0 [1, 11]: 13.90 g and 16.04 g and 15.50 g | Animal weight, Day 6 [1, 11]: 17.60 g and 19.18 g and 18.43 g | Course of animal weight (in words) ([1]; group fed CPDS diet for 45 days, food intake constant): stabilized after day 35 | Weight gain (in words) ([1]; groups fed CPDS diet for 6 and 30 days): constant and normal
Compound: O=C(O)c1ccc(SSc2ccc(C(=O)O)cn2)nc1 [CPDS, 6,6′-dithiodinicotinic acid]
Animal weight, Day 0 [1, 7]: 15.87 g and 15.18 g and 12.76 g and 15.67 g and 15.69 g and 15.29 g and 15.25 g and 13.28 g | Animal weight, Day 6 [1, 7]: 18.64 g and 19.84 g and 15.20 g and 18.31 g and 18.66 g and 18.54 g and 17.98 g and 16.92 g | Animal weight, Day 14 [1, 7]: 19.66 g and 20.46 g and 17.47 g and 19.96 g and 19.78 g and 19.09 g and 19.84 g and 18.65 g | Animal weight, Day 21 [1, 7]: 20.10 g and 21.36 g (2×) and 18.72 g and 21.20 g and 20.58 g and 20.79 g and 19.87 g | Animal weight, Day 28 [1, 7]: 21.96 g and 22.76 g and 19.99 g and 22.98 g and 22.80 g and 22.31 g and 22.57 g and 20.94 g | Animal weight, Day 0 [1, 9]: 13.58 g and 16.07 g and 14.28 g and 13.75 g and 14.89 g and 15.10 g and 13.67 g and 15.20 g | Animal weight, Day 6 [1, 9]: 17.25 g and 18.57 g and 17.03 g and 16.46 g and 17.79 g and 18.38 g and 16.98 g and 19.46 g | Animal weight, Day 14 [1, 9]: 18.57 g (2×) and 20.58 g and 18.25 g and 17.66 g and 18.83 g and 18.02 g and 20.86 g | Animal weight, Day 21 [1, 9]: 19.72 g and 21.59 g and 19.22 g and 18.38 g and 19.40 g and 19.35 g and 19.45 g and 21.74 g | Animal weight, Day 28 [1, 9]: 21.40 g (2×) and 23.72 g and 20.35 g and 20.18 g and 21.41 g and 21.14 g and 23.19 g | Animal weight, Day 35 [1, 9]: 21.82 g and 24.00 g and 20.91 g and 20.95 g and 22.47 g and 21.39 g and 22.28 g and 23.68 g | Animal weight, Day 45 [1, 9]: 22.71 g and 24.66 g and 20.96 g and 21.78 g and 23.15 g and 22.10 g and 23.09 g and 23.80 g | Weight gain vs group on normal Purina chow (in words) ([1]; group fed CPDS for 45 days, p=0.01432): statistically significant lower weight gain | Humoral response to KLH, variation (%) ([2]; Group 4, 45 days on CPDS diet vs Group 3): −52.94% | Serum dilution (lowest with apparent antibody response to KLH) ([2]; Group 4, 45 days on CPDS diet, KLH s.c. at day 30, serum 15 days later, individual mice): 1/4 (4×) and 0 (4×) | dilution log 2 (antibody titer to KLH) ([2]; Group 4, 45 days on CPDS diet, Mean ± S.D.): 1.00 log 2 and 1.00 ± 1.07 log 2 | dilution log 2 (antibody titer to KLH) ([2]; Group 4, 45 days on CPDS diet, individual mice): 2 log 2 (4×) and 0 log 2 (4×) | Cat's overall conditions (facial hair, eyes, skin, appetite, general behavior) ([3]; FIV-infected cat, 140 mg CPDS each morning in chow for 2 weeks): improved | Physical condition, appearance and behavior ([3]; FIV-infected cat, 280 mg CPDS daily for a total of 59 days): improved physical condition, improved overall physical appearance, and improved behavior | Weight gained by the cat ([3]; FIV-infected cat, after 30 days): 300 g | Cat's overall conditions ([3]; FIV-infected cat, after 30 days, 280 mg CPDS daily after week 2): overall conditions had improved | Health of the cat at follow-up ([3]; after treatment for 100 days and a year and half after treatment): appeared entirely healthy | Cat's health ([4]; FIV-positive cat, 280 mg CPDS daily in diet, after a few days): showed improvement | Symptoms (fever, diarrhea, swollen glands) [4, 12]: fever had subsided, the diarrhea was gone, its glands were no longer swollen | Test for the FIDS antibody [4, 12]: still tested positive | Overall state of the cat ([4]; after 30 days at 280 mg/day and another 60 days at 140 mg/day): appeared to be healed | Weight gain of the cat ([4]; after 60 days of treatment vs presentation): about 300 grams | Cat's weight after treatment ([4]; after 60 days of treatment, 9.5 lbs upon presentation): 10.2 lbs | Toxicity [5]: low toxicity
